Laboratory results: PMC10674166, “Sustainable Immobilization of β-Glucosidase onto Silver Ions and AgNPs-Loaded Acrylic Fabric with Enhanced Stability and Reusability” (Polymers, 2023)

Tested on: T1, β-glucosidase from almonds (β-Glu)
T1 construct: gene AH; free enzyme
Experiment: p-nitrophenol release at […] nm, Lineweaver-Burk
Type: biochemical
Conditions: free enzyme; standard assay 0.1 M sodium acetate pH 6.0, 37 °C (pH and temperature of the kinetic runs not restated); apparent constant

`O=[N+]([O-])c1ccc(O[C@@H]2O[C@H](CO)[C@@H](O)[C@H](O)[C@H]2O)cc1` [p-nitrophenyl-β-D-glucopyranoside] gave a Km of 2600 µM.
